Literature values in patent publication US4127524A, “Novel dodecapeptides, intermediates therefor, and compositions and methods employing said dodecapeptides” (priority 1977, dated 1978).

Tests used:
[1] = tested on: partially purified brain opiate receptor sites
rat = conditions: injected directly into the brain of the rat

Substance: H-Tyr-Gly-Gly-Phe-Met-OH [methionine enkephalin]
- binding to partially purified brain opiate receptor sites [1]: binds stereo-specifically
- analgesic activity (rat): only weak analgesic agent of short duration
